Reference: US8062996B2, “Plant glutamate receptors” (priority 1995, dated 2011)

How the values were obtained:
Arabidopsis [1] = assay: Germination of Arabidopsis in the dark; assay type: in vivo
From the text: FIG. 23. Effects of kainate of germination of Arabidopsis in the dark.
Kainate inhibition of germination in the dark is reversed by glutamate. Plants germinated in the dark on “normal” MS media (MS) as a positive control. Kainate, the iGluR agonist, causes a specific inhibition of germination of plants grown in MS media containing KA. The inhibition of germination by KA is reversed by the addition of glutamate to the media (MS+KA+Glu) (FIG. 23). Germination involves a light signal. Dark-grown seedlings are sown in the light and transferred to the dark. […] High doses of KA an agonist of iGluR in animals functions as a neurotoxin.
The effects of kainate on germination of Arabidopsis in the dark was determined.

Arabidopsis [2] = assay: Plant growth assay: root length on vertical tissue culture plates; assay type: in vivo
Procedure: Arabidopsis seeds were grown on MS+3% sucrose vertical tissue culture plates containing various amounts of kainate (FIG. 11A) or DNQX (FIG. 11B), with (white bars) or without (black bars) glutamate supplementation. The effects of each drug on plant growth were assayed by measuring root length after two week. The results were discussed in text.
The following assay may be utilized in order to screen drugs for their effects on plant growth mediated by the GluR. Arabidopsis seedlings expressing or overexpressing the GluR are treated with the potential agonist or antagonist. In this plant growth assay, Arabidopsis seeds are plated on tissue culture plates in MS Medium (Murashige and Skoog Salt Mixture-plant basic medium available from Gibco (BRL)). A dose-response curve is determined using various concentrations of the potential agonist or antagonist added to the medium. The plants are grown vertically in a growth chamber at 22° C. with a 16 hour light/8 hour dark cycle for two weeks. The effects of each herbicide on plant growth is assessed by measuring root length on vertical tissue culture plates.
A dose-response curve using various concentrations of KA or DNQX was performed and the effects of each drug on plant growth was determined by measuring root length on vertical tissue culture plates (see FIG. 11).

[3] = tested on: Arabidopsis wild-type seedlings; assay: Survival of wild-type seedlings on high-dose kainate; assay type: in vivo; settings: 12 mM kainate
Procedure: FIGS. 28A and 28B. Selection of Arabidopsis mutants resistant to the iGluR agonist Kainate. […] This is not unexpected as high doses of the iGluR agonist kainate function as a neurotoxin in animals. Arabidopsis mutants with putative defects in the KA binding site of iGluR were selected for the ability to grow in the presence of 12 mM kainate. […] Note the one KA-resistant plant is enlarged in FIG. 28B.
Arabidopsis mutants resistant to the iGluR agonist Kainate were selected. […] This is not unexpected as high doses of the iGluR agonist kainate function as a neurotoxin in animals. Arabidopsis mutants with putative defects in the KA binding site of iGluR were selected by selecting for mutants able to grow in the presence of 12 mM kainate. The ems mutagenized Arabidopsis M2 seedlings were sown on 12 mM kainate. Note the one KA-resistant plant is enlarged in FIG. 28B.

ASN1 mRNA = ASN1 mRNA levels by Northern blot (relief of sucrose repression); assay type: in vivo, Arabidopsis; settings: for relief of sucrose repression of ASN1 mRNA: 3% sucrose, dark 2 d; for induction of ASN1 mRNA: average of two Northern blot experiments, densitometry
Procedure: FIG. 12A. Arabidopsis seeds were grown on plates containing MS medium plates 3% (w/v) Suc under 16-h light/8-h dark cycle for 2-3 weeks. The plants were then transferred to media described below and grown in complete darkness for 2d. All samples containing 3% sucrose except for lane 2. MS was supplemented with kainate (lane 4:0.3 mM and lane 5: 0.03 mM), 0.05% (w/v) glutamate (lanes 6 and 7), and 10 μM DNQX (lanes 7 and 8). The expression of ASN1 and a control gene were detected by northern analyses on duplicate blots (under high-stringency conditions in 50% [v/v] formamide-solution), 20 μg of total RNA was used for each lane.
FIG. 12B. Quantitation of the Northern blot results in (A) by densitometry scan.
FIG. 12C. Average folds of induction in two Northern blot experiments.
The ability of a iGluR agonist to mimic the glutamate-stimulated expression of nitrogen assimilatory genes in Arabidopsis was tested using low concentrations of agonist KA and monitoring ASN1 mRNA levels as a measure of gene induction by KA.
ASN1 mRNA accumulates to high levels specifically in dark-treated plants (FIG. 12A, lane 2), and is repressed by light (FIG. 12A, lane 1) or sucrose (FIG. 12A, lane 3). […] ASN1 mRNA levels are determined by Northern blot analysis.

SMILES: C=C(C)[C@H]1CN[C@H](C(=O)O)[C@H]1CC(=O)O [KA, kainic acid]
- germination of dark-grown seedlings (Arabidopsis [1]; kainate 200-400 uM): significant inhibition of germination
- inhibition of germination with glutamate supplementation (Arabidopsis [1]; kainate plus glutamate in growth media): specifically reversed by the supplementation of glutamate
- root growth (Arabidopsis [2]; high concentrations of agonist or antagonist, without glutamate): reduction in root growth
- effect of high doses on root growth with glutamate supplementation (Arabidopsis [2]; high doses plus glutamate): at least partially reversed by glutamate supplementation
- effect on plant growth (root length) (Arabidopsis [2]; low concentrations, 0 to 0.3 mM KA, two weeks): no adverse effects on plant growth
- lethality to wild-type seedlings [3]: kill wild-type seedlings
- relief of sucrose repression of ASN1 mRNA (ASN1 mRNA; KA 300 uM and 30 μM): able to relieve the sucrose repression of ASN1 mRNA
- induction of ASN1 mRNA (ASN1 mRNA): roughly 2 fold

SMILES: N[C@@H](CCC(=O)O)C(=O)O [glutamate]
- relief of sucrose repression of ASN1 mRNA (ASN1 mRNA; 0.05% (w/v) glutamate): able to partially relieve this sucrose repression
- induction of ASN1 mRNA (ASN1 mRNA): roughly 2 fold
